The values that follow come from article doi:10.1101/2023.11.24.568596v1 (biorxiv, 2023).

Among the targets are SRC (Homo sapiens, UniProt P12931); SRPK1 (Homo sapiens, UniProt Q96SB4); Wnk1 (Homo sapiens, UniProt Q9H4A3); MST3 (Homo sapiens, UniProt Q9Y6E0); PAK1 (Homo sapiens, UniProt Q13153).
Conditions in all cases: binder
The target in another test is T1, MST1 (Homo sapiens, UniProt Q13043).
T1 sequence (Q13043 1-487): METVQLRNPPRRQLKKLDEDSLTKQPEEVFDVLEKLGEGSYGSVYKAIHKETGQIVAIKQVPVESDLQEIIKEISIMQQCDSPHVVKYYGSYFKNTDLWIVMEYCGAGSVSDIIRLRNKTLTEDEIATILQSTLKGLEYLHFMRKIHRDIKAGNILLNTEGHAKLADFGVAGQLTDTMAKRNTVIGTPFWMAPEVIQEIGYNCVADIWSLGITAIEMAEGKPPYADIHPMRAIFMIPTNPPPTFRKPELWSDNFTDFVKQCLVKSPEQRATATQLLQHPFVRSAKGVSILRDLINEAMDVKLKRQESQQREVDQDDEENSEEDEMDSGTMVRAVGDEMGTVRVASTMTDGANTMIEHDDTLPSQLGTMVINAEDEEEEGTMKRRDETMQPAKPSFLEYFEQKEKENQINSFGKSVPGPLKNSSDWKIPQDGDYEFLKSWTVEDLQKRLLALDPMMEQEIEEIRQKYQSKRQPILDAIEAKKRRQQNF

In another test the target is T2, MST2 (Homo sapiens, UniProt Q13188).
T2 sequence (Q13188 1-491): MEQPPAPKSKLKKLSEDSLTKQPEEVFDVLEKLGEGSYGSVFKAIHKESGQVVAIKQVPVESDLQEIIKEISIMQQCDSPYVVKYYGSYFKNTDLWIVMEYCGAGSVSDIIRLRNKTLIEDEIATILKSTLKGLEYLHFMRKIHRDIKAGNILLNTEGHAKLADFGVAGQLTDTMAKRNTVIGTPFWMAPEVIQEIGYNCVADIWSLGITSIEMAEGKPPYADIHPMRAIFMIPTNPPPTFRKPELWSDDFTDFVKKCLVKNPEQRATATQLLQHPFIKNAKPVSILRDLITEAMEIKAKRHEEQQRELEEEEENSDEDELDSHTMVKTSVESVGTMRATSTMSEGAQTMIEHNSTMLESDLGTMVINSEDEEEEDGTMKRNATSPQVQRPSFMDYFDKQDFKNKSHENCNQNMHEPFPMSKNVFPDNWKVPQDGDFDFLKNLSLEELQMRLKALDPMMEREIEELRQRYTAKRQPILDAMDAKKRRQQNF

Structures are written as SMILES.

PAK1, sequence (Q13153 whole entry): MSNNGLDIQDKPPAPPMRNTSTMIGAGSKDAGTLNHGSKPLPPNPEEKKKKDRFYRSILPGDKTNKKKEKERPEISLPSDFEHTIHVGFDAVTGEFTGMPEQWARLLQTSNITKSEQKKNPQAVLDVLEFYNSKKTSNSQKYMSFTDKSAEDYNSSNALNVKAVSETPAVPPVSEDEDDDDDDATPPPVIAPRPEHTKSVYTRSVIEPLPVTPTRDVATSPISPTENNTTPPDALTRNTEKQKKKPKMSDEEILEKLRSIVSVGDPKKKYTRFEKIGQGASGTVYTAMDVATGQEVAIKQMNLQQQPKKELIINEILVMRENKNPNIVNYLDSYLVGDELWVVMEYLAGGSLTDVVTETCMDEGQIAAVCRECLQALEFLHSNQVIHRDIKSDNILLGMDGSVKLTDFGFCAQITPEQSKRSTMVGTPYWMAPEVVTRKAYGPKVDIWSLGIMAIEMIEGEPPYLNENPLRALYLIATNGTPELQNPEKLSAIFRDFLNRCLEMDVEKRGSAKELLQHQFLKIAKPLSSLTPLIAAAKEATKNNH
SRPK1, sequence (Q96SB4 whole entry): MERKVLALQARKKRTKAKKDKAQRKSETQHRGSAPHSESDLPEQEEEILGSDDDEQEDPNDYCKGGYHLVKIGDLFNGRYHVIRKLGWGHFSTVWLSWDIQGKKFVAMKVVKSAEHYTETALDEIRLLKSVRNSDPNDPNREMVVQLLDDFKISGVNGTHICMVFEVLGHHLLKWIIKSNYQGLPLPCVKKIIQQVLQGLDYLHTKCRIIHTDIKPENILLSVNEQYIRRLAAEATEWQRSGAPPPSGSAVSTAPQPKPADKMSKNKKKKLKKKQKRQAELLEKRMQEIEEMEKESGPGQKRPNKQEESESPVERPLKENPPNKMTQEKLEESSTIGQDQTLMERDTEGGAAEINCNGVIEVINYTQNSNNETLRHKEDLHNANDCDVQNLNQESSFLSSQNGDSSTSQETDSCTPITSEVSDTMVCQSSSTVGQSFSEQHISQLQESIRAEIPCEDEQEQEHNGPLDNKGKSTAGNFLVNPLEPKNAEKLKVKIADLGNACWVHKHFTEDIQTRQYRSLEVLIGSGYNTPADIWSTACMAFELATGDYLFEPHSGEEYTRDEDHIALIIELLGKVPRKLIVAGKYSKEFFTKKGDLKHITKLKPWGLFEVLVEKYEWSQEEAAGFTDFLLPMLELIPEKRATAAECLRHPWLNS
MST3, sequence (Q9Y6E0 whole entry): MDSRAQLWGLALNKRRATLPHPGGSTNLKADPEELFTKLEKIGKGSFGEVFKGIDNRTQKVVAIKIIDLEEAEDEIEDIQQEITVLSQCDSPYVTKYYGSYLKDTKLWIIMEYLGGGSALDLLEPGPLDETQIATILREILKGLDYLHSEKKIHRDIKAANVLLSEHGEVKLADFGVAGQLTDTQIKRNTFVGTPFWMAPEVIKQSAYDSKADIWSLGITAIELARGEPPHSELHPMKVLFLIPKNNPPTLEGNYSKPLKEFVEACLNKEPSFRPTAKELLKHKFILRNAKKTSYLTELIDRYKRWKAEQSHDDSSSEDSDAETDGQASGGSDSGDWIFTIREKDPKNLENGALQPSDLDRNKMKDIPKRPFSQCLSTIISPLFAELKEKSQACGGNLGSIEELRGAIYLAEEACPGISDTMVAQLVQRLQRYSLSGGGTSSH
Wnk1, sequence (Q9H4A3 whole entry): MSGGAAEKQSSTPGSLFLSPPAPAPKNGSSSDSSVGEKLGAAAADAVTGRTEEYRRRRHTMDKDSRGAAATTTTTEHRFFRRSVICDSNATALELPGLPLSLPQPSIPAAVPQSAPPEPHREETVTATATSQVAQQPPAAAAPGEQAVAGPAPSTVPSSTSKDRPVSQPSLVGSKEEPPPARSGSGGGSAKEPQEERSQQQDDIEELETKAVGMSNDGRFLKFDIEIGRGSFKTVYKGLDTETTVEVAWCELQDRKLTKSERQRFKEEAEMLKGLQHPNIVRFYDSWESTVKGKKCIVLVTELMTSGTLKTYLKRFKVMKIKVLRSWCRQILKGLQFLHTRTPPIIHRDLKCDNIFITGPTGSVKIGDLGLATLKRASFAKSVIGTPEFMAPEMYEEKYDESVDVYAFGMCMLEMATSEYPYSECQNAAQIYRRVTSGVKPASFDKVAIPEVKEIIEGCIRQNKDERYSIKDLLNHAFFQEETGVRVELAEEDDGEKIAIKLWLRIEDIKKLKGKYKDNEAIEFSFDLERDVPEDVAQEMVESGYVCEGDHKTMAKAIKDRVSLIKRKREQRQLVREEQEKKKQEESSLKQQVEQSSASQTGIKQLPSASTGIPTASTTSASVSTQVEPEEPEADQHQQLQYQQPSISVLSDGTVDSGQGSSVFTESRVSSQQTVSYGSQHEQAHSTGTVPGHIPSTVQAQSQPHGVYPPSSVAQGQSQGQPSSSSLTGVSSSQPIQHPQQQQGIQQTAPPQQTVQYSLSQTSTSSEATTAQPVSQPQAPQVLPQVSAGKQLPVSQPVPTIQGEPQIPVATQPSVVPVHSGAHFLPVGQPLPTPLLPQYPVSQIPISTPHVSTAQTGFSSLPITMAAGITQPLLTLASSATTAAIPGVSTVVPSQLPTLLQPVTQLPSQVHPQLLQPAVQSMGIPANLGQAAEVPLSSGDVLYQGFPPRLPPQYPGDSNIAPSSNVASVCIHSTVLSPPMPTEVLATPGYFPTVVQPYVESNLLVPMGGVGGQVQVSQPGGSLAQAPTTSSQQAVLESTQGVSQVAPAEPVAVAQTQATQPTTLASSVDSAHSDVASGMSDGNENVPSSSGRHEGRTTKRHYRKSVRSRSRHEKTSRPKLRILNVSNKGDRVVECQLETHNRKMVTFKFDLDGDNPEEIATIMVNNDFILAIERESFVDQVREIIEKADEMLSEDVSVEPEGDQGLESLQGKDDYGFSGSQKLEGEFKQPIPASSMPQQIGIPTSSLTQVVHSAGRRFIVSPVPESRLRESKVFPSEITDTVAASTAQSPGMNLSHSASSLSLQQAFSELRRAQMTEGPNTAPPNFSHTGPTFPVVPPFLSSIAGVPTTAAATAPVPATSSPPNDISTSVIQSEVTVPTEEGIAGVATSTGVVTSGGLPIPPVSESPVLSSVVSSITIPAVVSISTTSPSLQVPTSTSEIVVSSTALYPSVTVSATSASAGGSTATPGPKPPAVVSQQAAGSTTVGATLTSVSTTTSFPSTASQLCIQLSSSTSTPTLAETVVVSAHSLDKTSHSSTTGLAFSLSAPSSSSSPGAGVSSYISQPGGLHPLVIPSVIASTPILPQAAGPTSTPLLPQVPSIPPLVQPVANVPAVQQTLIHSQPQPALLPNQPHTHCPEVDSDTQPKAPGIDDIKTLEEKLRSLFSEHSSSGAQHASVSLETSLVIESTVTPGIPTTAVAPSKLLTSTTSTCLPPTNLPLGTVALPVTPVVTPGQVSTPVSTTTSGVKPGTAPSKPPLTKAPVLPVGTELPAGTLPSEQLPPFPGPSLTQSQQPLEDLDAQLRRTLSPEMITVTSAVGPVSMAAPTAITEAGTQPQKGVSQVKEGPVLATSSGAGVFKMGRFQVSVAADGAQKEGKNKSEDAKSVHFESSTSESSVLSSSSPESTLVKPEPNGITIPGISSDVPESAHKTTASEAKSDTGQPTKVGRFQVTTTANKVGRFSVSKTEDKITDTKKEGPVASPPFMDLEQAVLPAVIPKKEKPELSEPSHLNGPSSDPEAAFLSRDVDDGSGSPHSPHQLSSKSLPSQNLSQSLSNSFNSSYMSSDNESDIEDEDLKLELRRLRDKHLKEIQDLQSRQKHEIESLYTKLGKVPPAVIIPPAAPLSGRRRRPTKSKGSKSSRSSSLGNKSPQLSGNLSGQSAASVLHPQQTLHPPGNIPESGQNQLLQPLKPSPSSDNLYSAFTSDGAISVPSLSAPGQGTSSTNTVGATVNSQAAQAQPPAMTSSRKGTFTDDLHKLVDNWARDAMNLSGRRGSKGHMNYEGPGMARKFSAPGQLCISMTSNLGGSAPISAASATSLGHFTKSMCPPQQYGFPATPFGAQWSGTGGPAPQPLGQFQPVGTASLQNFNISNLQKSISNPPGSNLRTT
SRC, sequence (P12931 whole entry): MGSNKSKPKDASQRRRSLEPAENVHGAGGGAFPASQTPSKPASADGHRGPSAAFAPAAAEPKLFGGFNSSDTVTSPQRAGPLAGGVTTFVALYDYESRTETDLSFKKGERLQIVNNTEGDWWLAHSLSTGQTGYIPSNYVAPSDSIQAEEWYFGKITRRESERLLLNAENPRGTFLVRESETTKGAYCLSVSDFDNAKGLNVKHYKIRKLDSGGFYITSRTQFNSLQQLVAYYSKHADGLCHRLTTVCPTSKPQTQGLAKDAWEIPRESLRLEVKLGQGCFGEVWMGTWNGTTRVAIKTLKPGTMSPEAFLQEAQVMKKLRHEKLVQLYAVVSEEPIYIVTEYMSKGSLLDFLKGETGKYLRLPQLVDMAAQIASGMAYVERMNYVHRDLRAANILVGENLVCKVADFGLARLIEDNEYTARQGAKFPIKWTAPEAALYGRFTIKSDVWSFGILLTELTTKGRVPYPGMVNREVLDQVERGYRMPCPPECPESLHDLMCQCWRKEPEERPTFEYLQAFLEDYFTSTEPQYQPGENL

As for `Cc1cccc(-c2ccc(-c3cc4cnc(NCCCN5CCNCC5)nc4n(CCCCN)c3=O)c(Cl)c2)n1` [compound 29, 8-(4-Aminobutyl)-6-(2-chloro-4-(6-methylpyridin-2-yl)phenyl)-2-((3-(piperazin-1-yl)propyl)amino)pyrido[2,3-d]pyrimidin-7(8H)-one], the “ΔTm 29” value was determined as 1.9 °C at SRC, 0.1 °C on SRPK1 and 0.6 °C on Wnk1. Further, the “dTm MST1” value on MST1 was found to be 3.1 °C. The “dTm MST2” value at MST2 was found to be 5.2 °C. Further, the “dTm MST3” value on MST3 worked out at 13.0 °C. Besides, on PAK1, the “dTm PAK1” value was found to be 5.0 °C.
`COc1ccc(O)c(Nc2ncc3cc(-c4ccc(-c5cccc(C)n5)cc4Cl)c(=O)n(CCCCN)c3n2)c1` [compound 34, 8-(4-Aminobutyl)-6-(2-chloro-4-(6-methylpyridin-2-yl)phenyl)-2-((2-hydroxy-5-methoxy-phenyl)amino)pyrido[2,3-d]pyrimidin-7(8H)-one]: at MST1, the “dTm MST1” value came to 3.8 °C. Moreover, the “dTm MST2” value on MST2 turned out to be 5.4 °C. On MST3, the “dTm MST3” value was 11.0 °C. For the same compound, the “dTm PAK1” value on PAK1 is 4.5 °C.
For the compound `Cc1cccc(-c2ccc(-c3cc4cnc(Nc5ccc(F)c(CO)c5)nc4n(CCCCN)c3=O)c(Cl)c2)n1` [compound 33, 8-(4-Aminobutyl)-6-(2-chloro-4-(6-methylpyridin-2-yl)phenyl)-2-((4-fluoro-3-(hydroxymethyl)phenyl)amino)pyrido[2,3-d]pyrimidin-7(8H)-one], the “dTm MST1” value on MST1 was found to be 8.6 °C. Besides, the “dTm MST2” value on MST2 amounted to 16.0 °C. The “dTm MST3” value on MST3 came out at 16.9 °C. Also, the “dTm PAK1” value at PAK1 stood at 9.3 °C.
Regarding `COc1cc(N2CCOCC2)ccc1Nc1ncc2cc(-c3ccc(-c4cccc(C)n4)cc3Cl)c(=O)n(CCCCN)c2n1` [compound 35, 8-(4-Aminobutyl)-6-(2-chloro-4-(6-methylpyridin-2-yl)phenyl)-2-((2-methoxy-4-morpholino-phenyl)amino)pyrido[2,3-d]pyrimidin-7(8H)-one], at MST1, the “dTm MST1” value is 4.6 °C. For the same compound, the “dTm MST2” value on MST2 is 7.5 °C. Moreover, the “dTm MST3” value at MST3 is 11.0 °C. Also, at PAK1, the “dTm PAK1” value was found to be 5.0 °C.
`Cc1cccc(-c2ccc(-c3cc4cnc(NCCCN5CCCC5=O)nc4n(CCCCN)c3=O)c(Cl)c2)n1` [compound 27, MR30]: the “ΔTm MR30 (27)” value was -0.5 °C on SRC, -0.2 °C at SRPK1 and 0.8 °C at Wnk1. Besides, the “dTm MST1” value on MST1 worked out at 1.1 °C. For the same compound, the “dTm MST2” value at MST2 was determined as 2.2 °C. Moreover, the “dTm MST3” value at MST3 came out at 10.6 °C. The “dTm PAK1” value at PAK1 worked out at 3.6 °C.
On to `Cc1cccc(-c2ccc(-c3cc4cnc(Nc5ccc(O)cc5)nc4n(CCCCN)c3=O)c(Cl)c2)n1` [compound 31, 8-(4-Aminobutyl)-6-(2-chloro-4-(6-methylpyridin-2-yl)phenyl)-2-((4-hydroxyphenyl)amino) pyrido[2,3-d]pyrimidin-7(8H)-one], for which the “ΔTm 31” value turned out to be 5.0 °C at SRC, 0.3 °C on SRPK1 and 3.1 °C at Wnk1. Also, the “dTm MST1” value at MST1 was 8.0 °C. In addition, the “dTm MST2” value at MST2 was determined as 13.7 °C. Moreover, on MST3, the “dTm MST3” value was found to be 17.1 °C. In addition, the “dTm PAK1” value on PAK1 came out at 9.2 °C.
In the case of `COc1cc(N2CCN(C)CC2)ccc1Nc1ncc2cc(-c3ccc(-c4cccc(C)n4)cc3Cl)c(=O)n(CCCCN)c2n1` [compound 36, 8-(4-Aminobutyl)-6-(2-chloro-4-(6-methylpyridin-2-yl)phenyl)-2-((2-methoxy-4-(4-methylpiperazin-1-yl)phenyl)amino)pyrido[2,3-d]pyrimidin-7(8H)-one], on MST1, the “dTm MST1” value was 4.0 °C. The “dTm MST2” value on MST2 was 7.4 °C. In addition, the “dTm MST3” value at MST3 is 13.5 °C. In addition, the “dTm PAK1” value at PAK1 amounted to 8.8 °C.
For `Cc1cccc(-c2ccc(-c3cc4cnc(Nc5ccc(CCCO)cc5)nc4n(CCCCN)c3=O)c(Cl)c2)n1` [compound 30, 8-(4-Aminobutyl)-6-(2-chloro-4-(6-methylpyridin-2-yl)phenyl)-2-((4-(3-hydroxypropyl)phenyl)amino)pyrido[2,3-d]pyrimidin-7(8H)-one], the entries for the “ΔTm 30” value on SRC, at SRPK1 and on Wnk1 were 4.6 °C, 0.0 °C and 4.8 °C, respectively. Besides, the “dTm MST1” value at MST1 amounted to 8.7 °C. Also, the “dTm MST2” value on MST2 is 15.8 °C. Moreover, the “dTm MST3” value on MST3 is 16.7 °C. In addition, on PAK1, the “dTm PAK1” value worked out at 9.1 °C.
`Cc1cccc(-c2ccc(-c3cc4cnc(Nc5cc(C(F)(F)F)ccc5C)nc4n(CCCCN)c3=O)c(Cl)c2)n1` [compound 28, 8-(4-Aminobutyl)-6-(2-chloro-4-(6-methylpyridin-2-yl)phenyl)-2-((2-methyl-5-(trifluoromethyl)phenyl)amino)pyrido[2,3-d]pyrimidin-7(8H)-one]: the “ΔTm 28” value was found to be 3.4 °C on SRC, 0.1 °C on SRPK1 and 2.8 °C on Wnk1. Besides, the “dTm MST1” value on MST1 came out at 5.8 °C. Moreover, the “dTm MST2” value on MST2 stood at 10.2 °C. Further, the “dTm MST3” value at MST3 came to 13.0 °C. For the same compound, on PAK1, the “dTm PAK1” value was 5.9 °C.
`Cc1cccc(-c2ccc(-c3cc4cnc(Nc5ccc(C)c(O)c5)nc4n(CCCCN)c3=O)c(Cl)c2)n1` [compound 32, 8-(4-Aminobutyl)-6-(2-chloro-4-(6-methylpyridin-2-yl)phenyl)-2-((3-hydroxy-4-methylphenyl)amino)pyrido[2,3-d]pyrimidin-7(8H)-one]: the “ΔTm 32” value was determined as 5.1 °C on SRC, 0.4 °C at SRPK1 and 3.5 °C on Wnk1. In addition, the “dTm MST1” value at MST1 was determined as 8.1 °C. Also, the “dTm MST2” value on MST2 worked out at 13.2 °C. For the same compound, at MST3, the “dTm MST3” value was 17.5 °C. At PAK1, the “dTm PAK1” value amounted to 9.1 °C.
